Structures are written as SMILES. Where “and” joins values, the source holds several entries; their conditions need not be identical. Equal values may be shown once. Read-outs that look alike come from different tables or passages of the source. Peptide text beside a SMILES is read from it. * marks the point of attachment. Cbz = O=C(OCc1ccccc1)*

For assay [1], the target named is T1, BACE1 (Homo sapiens, UniProt P56817).
T1 construct: purchased Sigma-Aldrich Co. LLC; CS0010
Further details: method as in ChEMBL23 [24]. The following applies: known BACE1 inhibitors of Training/Test sets; ref ChEMBL23 [24]; cited from earlier work.

Assay [2] deals with T1, BACE1. Description: Cell-free FRET assay for BACE1 activity (β-Secretase (BACE1) Activity Detection Kit CS0010). Particulars: for Average percent inhibition at 10 μM: Table S2, thirty-four in vitro tested compounds, mean of at least three independent experiments in triplicate. In kind it is biochemical.
Where [3] appears, read: 10 μM, mean of at least three independent experiments performed in triplicate, read-out: Average Percent Inhibition at 10 μM.

T1 sequence (P56817 46-501): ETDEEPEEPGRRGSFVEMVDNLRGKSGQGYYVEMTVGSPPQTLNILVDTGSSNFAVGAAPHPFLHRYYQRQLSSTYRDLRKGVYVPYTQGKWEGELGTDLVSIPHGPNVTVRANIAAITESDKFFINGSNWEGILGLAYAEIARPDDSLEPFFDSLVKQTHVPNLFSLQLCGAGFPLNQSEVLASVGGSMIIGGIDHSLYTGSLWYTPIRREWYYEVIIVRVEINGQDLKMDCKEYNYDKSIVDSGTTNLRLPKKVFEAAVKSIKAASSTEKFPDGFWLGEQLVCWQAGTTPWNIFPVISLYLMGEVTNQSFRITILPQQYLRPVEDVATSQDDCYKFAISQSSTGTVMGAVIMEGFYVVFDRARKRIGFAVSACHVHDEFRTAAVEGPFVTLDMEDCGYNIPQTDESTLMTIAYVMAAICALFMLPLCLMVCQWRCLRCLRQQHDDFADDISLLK

Broadly, the IC50 is the concentration that gives 50% inhibition. `CC1(C)OCC(N)=N[C@](C)(c2cc(NC3COc4cc(Cl)ccc43)ccc2F)C1(F)F` (stereo partly shown) [ChEMBL3670919]: the IC50 on BACE1 [1] was 0.32 µM.
A word on the inhibition: it is how much of the control response was suppressed. On to `O=C(CCc1ccccc1)c1ccccc1OCC(O)CN1CCCCC1` (stereo not shown) [Compound 13], for which the inhibition at 10 µM at BACE1 [2] (setting [3]) turned out to be 34.7%.
As for `CC#CCOc1cnc(C(=O)Nc2ccc(Cl)c(C3(C(F)F)N=C(N)OC4CC43)c2)cn1` (stereo not shown) [Compound 4], on BACE1 [1], the IC50 was 0.0039 µM.
With `CC(=O)c1ccc(OCC(O)CN2CCN(c3ccccc3)CC2)c(C)c1` (stereo not shown) [NSC147841], the “Average percent inhibition at 10 μM” value at BACE1 [2] (10 μM) turned out to be 13.0%.
Regarding `Cc1cc(=O)oc2cc(OCC(O)CN3CCN(c4ccc(F)cc4)CC3)ccc12` (stereo not shown) [Compound 12], at BACE1 [2] (setting [3]), the inhibition at 10 µM came out at 33.5%.
`CCc1ccc2c(c1)C1(N=C(N)N(C)O1)[C@]1(CC[C@H](OC)CC1)C2` (stereo partly shown) [ChEMBL3656204]: the IC50 on BACE1 [1] is 0.521 µM.
Regarding `CCN(CC)CCNc1ccc(CO)c2oc3ccccc3c(=O)c12` [Compound 18], at BACE1 [2] (setting [3]), the inhibition at 10 µM stood at 20.6%.
Turning to `COc1cc(F)c2c(c1)C1(N=C(N)n3ccnc31)c1cc(-c3cccnc3F)ccc1O2` (stereo not shown) [ChEMBL3677269], the IC50 on BACE1 [1] is 0.009 µM.
With `CC(=O)c1cccc(OCC(O)CN2CCN(c3ccc(C)cc3)CC2)c1` (stereo not shown) [NSC147852], the “Average percent inhibition at 10 μM” value on BACE1 [2] (10 μM) came to 10.6%.
Consider `CC1(C)N=C(N)N=C(N)N1c1cccc(OCCCOc2ccc(NC(=O)CBr)cc2)c1` [Compound 22], for which, on BACE1 [2] (setting [3]), the inhibition at 10 µM amounted to 18.1%.
For the compound `NC1=NC2(CO1)c1cc(-c3cc(Cl)cnc3F)ccc1OC1(CCC1)C21COC1` (stereo not shown) [ChEMBL3703272], the IC50 at BACE1 [1] is 0.827 µM.
Turning to `COc1cc(C(O)C(O)c2cc(CN3CCOCC3)c(O)c(OC)c2)cc(CN2CCOCC2)c1O` (stereo not shown) [NSC55229], the “Average percent inhibition at 10 μM” value at BACE1 [2] (10 μM) was determined as 12.1%.
In the case of `CCc1cn2c3c(cc(C(=O)N[C@@H](Cc4ccccc4)[C@H](O)CNC4CC4)cc13)N(CC)S(=O)(=O)CC2` [ChEMBL533064], the IC50 on BACE1 [1] was 0.02 µM.
Regarding `Cc1ccc(S(=O)(=O)Oc2ccc3oc4c(CO)ccc(NCCN(C)C)c4c(=O)c3c2)cc1` [Compound 19], the inhibition at 10 µM on BACE1 [2] (setting [3]) is 21.2%.
Consider `COC1CCC2(CC1)Cc1ccc(-c3cccc(C#N)c3)cc1C21N=C(N)c2ccccc21` (stereo not shown) [ChEMBL3673221], for which, at BACE1 [1], the IC50 was 0.006 µM.
Take `N#CC(NCCCNC(C#N)c1ccccc1)c1ccccc1` (stereo not shown) [NSC81537]: the “Average percent inhibition at 10 μM” value at BACE1 [2] (10 μM) is 8.6%.
Consider `CCO[C@H]1CC[C@]2(CC1)Cc1ccc(-c3cccc(OC)c3)cc1C21N=C(N)N(C)C1=O` (stereo partly shown) [ChEMBL3978126], for which the IC50 on BACE1 [1] was 0.015 µM.
Consider `NC1=NC(c2ccncc2)(c2cccc(-c3cncc(F)c3)c2)c2cccc(F)c21` (stereo not shown) [ChEMBL2177905], for which the IC50 on BACE1 [1] was 0.137 µM.
`Cc1cc(C2(c3cccc(-c4cncnc4)c3)N=C(N)N(C)C2=O)ccn1` (stereo not shown) [ChEMBL598258]: the IC50 at BACE1 [1] is 0.08 µM.
Regarding `CC(=O)[C@]1(O)Cc2c(O)c3c(c(O)c2[C@@H](O[C@H]2C[C@H](N)[C@H](O)[C@H](C)O2)C1)C(=O)c1ccccc1C3=O` [Compound 21, idarubicin], the inhibition at 10 µM on BACE1 [2] (setting [3]) is 18.1%.
Still for that read-out and setting: next, `O=C1c2c(O)ccc(O)c2C(=O)c2c(NCCNCCO)ccc(NCCNCCO)c21` [Compound 17, mitoxantrone]: 22.6%.
`CC1(c2cccc(NC(=O)c3ncc(Br)cn3)c2)COCC(N)=N1` (stereo not shown) [ChEMBL3653345]: the IC50 on BACE1 [1] was 0.54 µM.
Turning to `NC1=NC(c2ccccc2)(C2CCCCC2)C(=O)N1CCCCCC(=O)O` (stereo not shown) [ChEMBL607527], the IC50 at BACE1 [1] is 0.95 µM.
`CC1=NC2(CC(C3CCOC(C)(C)C3)Oc3ccc(-c4cccc(Cl)c4)cc32)N=C1N` (stereo not shown) [ChEMBL3653708]: the IC50 on BACE1 [1] was 0.005 µM.
In the case of `COc1ccc(C(=O)/C=C/c2cn(CC(O)CN3CCN(C)CC3)c3ccccc23)cc1` (stereo not shown) [Compound 11], the inhibition at 10 µM at BACE1 [2] (setting [3]) is 50.3%. Moreover, on BACE1 [2] (from the dose-response curve (Figure 8)), the IC50 was 15.4 µM and 15 µM.
`NC(Cc1ccccc1)C(=O)NCC(=O)NC(Cc1ccccc1)C(=O)NCC(=O)O` (stereo not shown) [Compound 15] (H-FGFG-OH; configuration not given here): on BACE1 [2] (setting [3]), the inhibition at 10 µM amounted to 30.7%.
For `O=C(NC(Cc1cnc[nH]1)C(=O)NC(Cc1ccc(O)cc1)C(=O)O)OCc1ccccc1` (stereo not drawn) [NSC333463] (Cbz-His-Tyr-OH; configuration not given here), the “Average percent inhibition at 10 μM” value at BACE1 [2] (10 μM) stood at 13.4%.
Regarding `NC1=NC2(CO1)c1cc(NC(=O)c3ncc(Br)cn3)ccc1OCC21CC1` (stereo not shown) [ChEMBL3650820], at BACE1 [1], the IC50 is 0.661 µM.
As to `CC(C)c1ccc(CO[C@H]2CN(S(=O)(=O)c3ccccc3)C[C@@H]2Nc2nc3cc(F)ccc3[nH]2)cc1` [ChEMBL3746896], on BACE1 [1], the IC50 was 0.48 µM.
On to `CC(CCc1ccc(O)cc1)NCCc1ccc(O)c(O)c1` (stereo not shown) [Compound 16, dobutamine], for which, on BACE1 [2] (setting [3]), the inhibition at 10 µM is 29.9%.
As for `NC1=N[C@](CF)(c2cc(NC(=O)c3cc4ccccc4cn3)ccc2F)[C@H]2C[C@H]2O1` [ChEMBL3688633], on BACE1 [1], the IC50 was 0.499 µM.
For the compound `O=C1c2ccccc2C(=O)c2c(NCCNCCO)ccc(NCCNCCO)c21` [NSC196473], the inhibition at 10 µM at BACE1 [2] (read-out: Average percent inhibition at 10 μM) amounted to 12.4%.
Take `O=C(C[n+]1ccccc1)Nc1cccc(C(=O)Nc2ccc(Cl)cc2)c1` [ChEMBL1163225]: the IC50 at BACE1 [1] is 1 µM.
For `CC(=O)Nc1ccc(N2C(=O)CC(NCc3ccc(Cl)cc3Cl)C2=O)cc1` (stereo not shown) [Compound 14], the inhibition at 10 µM at BACE1 [2] (setting [3]) amounted to 31.3%.
Consider `O=C1c2ccccc2C(=O)c2c(NCCCNCCO)ccc(NCCCNCCO)c21` [NSC278467], for which the “Average percent inhibition at 10 μM” value at BACE1 [2] (10 μM) was 17.0%.
With `CN1C(=O)CC2(N=C1N)c1cc(-c3cccnc3F)ccc1Oc1c2cc(-c2ccnc(F)c2)nc1F` (stereo not shown) [ChEMBL3639946], the IC50 at BACE1 [1] is 0.0024 µM.
Regarding `CC(=O)c1ccccc1OCC(O)CN1CCN(c2ccccc2)CC1` (stereo not shown) [NSC147850], the “Average percent inhibition at 10 μM” value at BACE1 [2] (10 μM) came out at 8.7%.
For `O=C(Nc1cc(Br)ccc1N1CCNCC1)c1cccc2ccccc12` [ChEMBL203120], on BACE1 [1], the IC50 was 1 µM.
As for `[C-]#[N+]c1ccc(C(=O)Nc2ccc(F)c([C@]34COC[C@@]3(F)CSC(N)=N4)c2)nc1` [ChEMBL3672943], the IC50 on BACE1 [1] is 0.0066 µM.
In the case of `NC1=N[C@@]2(c3cc(-c4cccnc4F)ccc3Oc3c(F)cc(N4CCOCC4)cc32)c2nccn21` [ChEMBL3677276], the IC50 at BACE1 [1] was 0.0007 µM.
Consider `NC1=N[C@@]2(CO1)c1cc(-c3cccnc3F)ccc1Oc1c2cc(N2CCOCC2)nc1F` [ChEMBL3394224], for which the IC50 at BACE1 [1] was 0.0003 µM.
For `NC1=N[C@@]2(CCOC1)c1cc(-c3cccnc3F)ccc1Oc1cnc(-c3ccc(F)c(F)c3)cc12` [ChEMBL2152912], the IC50 on BACE1 [1] is 0.002 µM.
Take `CC(C)C[C@H](NC(=O)[C@@H](NC(=O)[C@@H](N)CNC(=O)c1nn[nH]n1)C(C)C)C(=O)N[C@@H](Cc1ccccc1)[C@@H](O)C(=O)Nc1cc(-c2nn[nH]n2)cc(-c2nn[nH]n2)c1` [ChEMBL439521]: the IC50 at BACE1 [1] is 0.0012 µM.
In the case of `O=C1c2ccccc2C(=O)c2c3c(cc(NCCNCCO)c21)N(CCO)CCN3` [Compound 20], the inhibition at 10 µM on BACE1 [2] (setting [3]) was found to be 19.5%.
Consider `CC(=O)c1ccccc1OCC(O)CN1CCN(c2cccc(C(F)(F)F)c2)CC1` (stereo not shown) [NSC147843], for which, on BACE1 [2] (10 μM), the “Average percent inhibition at 10 μM” value is recorded as 9.6%.

These data come from publication PMC7226079, “Combining Virtual Screening Protocol and In Vitro Evaluation towards the Discovery of BACE1 Inhibitors” (Biomolecules, 2020).
